# Test results from patent publication US6730480B1, “Sphingosine kinase enzyme” (Johnson & Johnson Pharmaceutical Research and Development …, priority 1999, dated 2004).
# Entries after “also recorded” stand apart in the source; their conditions may differ.
# How the values were obtained:
# [1] = target: T1, native sphingosine kinase (human placenta SK1) (Homo sapiens, UniProt Q9NYA1); test: Sphingosine kinase enzyme assay with native SK purified from human placenta; type: biochemical; conditions: for kcat: Triton X-100 mixed micelles; for Km / Km (mol %): substrate kinetics; for Km (mol %): mol % of Triton X-100 (0.25% w/v); for Substrate specificity (phosphorylation by the enzyme): substrates at 100 μM in 0.25% Triton X-100, relative to sphingosine; for Effect of phospholipid on sphingosine kinase activity: phospholipid at 10 mol% of Triton X-100; for Metal ion requirement (sphingosine kinase activity): metal ions or EDTA at 10 mM
# T1 construct: from tissue; host or cells: human placenta
# Procedure: Sphingosine kinase activity was routinely determined using D-erythro-sphingosine and [γ^32P]ATP as substrates, essentially as previously described (Olivera et al., 1998) with some modifications. […] Reactions were terminated and sphingosine-1-phosphate extracted by the addition of 700 μl of chloroform/methanol/HCl (100:200:1. v/v), followed by vigorous mixing, addition of 200 μp of chloroform and 200 μl of 2 M KCl, and phase separation by centrifugation. […] Sunnyvale, Calif.). One unit (U) of activity is defined as 1pmol of S1P formed per minute. […] Similarly, thermal stabilities were determined by assaying the residual activity after pre-incubation of the enzymes at various temperatures (4-80° C.) for 30 min at pH 7.4 (50 mM Tris/HCl containing 10% glycerol, 0.5 M NaCl and 0.05% Triton X-100). Substrate kinetics were analysed using Michaelis-Menten kinetics with a weighted non-linear regression program (Easterby, 1996). […] In both cases the data were analysed by non-linear regression. The effect of metal ions on the activity of the native and recombinant sphingosine kinases were determined by assaying the activity under standard conditions in the presence of various metal ions or EDTA at 10 mM. […] PC, phosphatidylcholine; PS phosphatidylserine; PE, […]; PI, phosphatidylinositol.
# [2] = target: T2, recombinant human sphingosine kinase (Homo sapiens, UniProt Q9NYA1); test: Sphingosine kinase enzyme assay with recombinant human SK expressed in E. coli; type: biochemical; conditions: for kcat: Triton X-100 mixed micelles; for Km / Km (mol %): substrate kinetics; for Km (mol %): mol % of Triton X-100 (0.25% w/v); for Substrate specificity (phosphorylation by the enzyme): substrates at 100 μM in 0.25% Triton X-100, relative to sphingosine; for Effect of phospholipid on sphingosine kinase activity: phospholipid at 10 mol% of Triton X-100; for Metal ion requirement (sphingosine kinase activity): metal ions or EDTA at 10 mM
# T2 construct: The full length SPHK cDNA cloned into pGEX4T2 was transformed into E. coli BL21; GST (N, cleaved yes); made in house; host or cells: E. coli BL21
# Procedure: Sphingosine kinase activity was routinely determined using D-erythro-sphingosine and [γ^32P]ATP as substrates, essentially as previously described (Olivera et al., 1998) with some modifications. […] Reactions were terminated and sphingosine-1-phosphate extracted by the addition of 700 μl of chloroform/methanol/HCl (100:200:1. v/v), followed by vigorous mixing, addition of 200 μp of chloroform and 200 μl of 2 M KCl, and phase separation by centrifugation. […] Sunnyvale, Calif.). One unit (U) of activity is defined as 1pmol of S1P formed per minute. The full length SPHK cDNA cloned into pGEX4[…]. coli BL21. Overnight cultures (100 ml) of transformed isolates were grown with shaking (200 rpm) at 30° C. in Superbroth (20 g/L glucose, 35 g/L tryptone, 20 g/L yeast extract, 5 g/L NaCl, pH 7.5) medium containing ampicillin (100 mg/L). The cultures were diluted 1:20 in fresh medium and grown at 30° C. with shaking to an OD600 of 0.6-0.7. Expression of the glutathione-s-transferase (GST)-coupled sphingosine kinase (GST-SK) was then induced by addition of 0.1 mM isopropyl-β-D-thiogalactoside and further incubation of the cultures at 30° C. for 3 h. After this time the bacterial cells were then harvested by centrifugation at 6,000 g for 20 min at 4° C. and resuspended in 20 ml of buffer B containing 250 mM NaCl. the cells were then lysed with lysozyme at a final concentration of 0.3 mg/ml for 15 min at 25° C. followed by sonication, consisting of three cycles of 20 s ultrasonic pulses followed by one minute cooling. The lysate was then clarified by centrifugation at 50,000 g for 45 min at 4° C., followed by filtrating through 0.22 μm filters. To be filtered supernatant was then incubated with 0.2 volumes of 50% (w/v) glutathione-Sepharose 4B (Pharmacia) that was washed and pro-equilibrated with buffer B, for 60 min at 4° C. with constant mixing. After this time the mixture was poured into a glass chromatography column (10 mm diam.) and the beads (with bound GST-SK) washed with 10 column volumes of buffer B at 4° C. The GST-SK was then eluted from the column in 10 ml of buffer B containing 10 mM reduced glutathione. Cleavage of the GST away from sphingosine kinase was then performed by incubation with 20 μg (30 N.I.H. units) thrombin (Pharmacia) for 3 h at 25° C. The released sphingosine kinase was then purified by application of the cleavage mix to a calmodulin-Sepharose column and then a Mono-Q anion exchange column for the purification of the sphingosine kinase from human placenta. […] Similarly, thermal stabilities were determined by assaying the residual activity after pre-incubation of the enzymes at various temperatures (4-80° C.) for 30 min at pH 7.4 (50 mM Tris/HCl containing 10% glycerol, 0.5 M NaCl and 0.05% Triton X-100). Substrate kinetics were analysed using Michaelis-Menten kinetics with a weighted non-linear regression program (Easterby, 1996). […] In both cases the data were analysed by non-linear regression. The effect of metal ions on the activity of the native and recombinant sphingosine kinases were determined by assaying the activity under standard conditions in the presence of various metal ions or EDTA at 10 mM. […] PC, phosphatidylcholine; PS phosphatidylserine; PE, […]; PI, phosphatidylinositol.
# [3] = inhibitor 2 to 50 μM, mol % of Triton X-100
# [4] = listed as N,N,N, -trimethylsphingosinei
# [5] = ADP 0.1 to 5 mM, with respect to ATP
# T2 sequence (Q9NYA1 whole entry): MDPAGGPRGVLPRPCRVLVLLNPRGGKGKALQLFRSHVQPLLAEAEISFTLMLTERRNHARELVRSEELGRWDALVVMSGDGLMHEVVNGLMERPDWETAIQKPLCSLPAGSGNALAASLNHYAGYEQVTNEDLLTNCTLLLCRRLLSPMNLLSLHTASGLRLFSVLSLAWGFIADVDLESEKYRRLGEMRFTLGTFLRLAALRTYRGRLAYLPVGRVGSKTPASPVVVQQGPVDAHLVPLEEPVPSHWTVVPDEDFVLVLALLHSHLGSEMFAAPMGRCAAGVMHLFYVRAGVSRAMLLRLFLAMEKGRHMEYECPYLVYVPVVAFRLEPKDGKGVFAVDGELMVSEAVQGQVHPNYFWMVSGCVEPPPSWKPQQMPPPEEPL
# T1 sequence (Q9NYA1 whole entry): as above
molecule,measurement,setting,value
"CCCCCCCCCCCCCCC[C@@H](O)[C@@H](N)CO [Dihydrosphingosine, D-erythro-dihydrosphingosine]",kcat,[1],35 S^−1
same,Km,[1]; bulk solution concentration,20 ± 2 µM
same,Km (mol %),[1],0.50 ± 0.05 mol %
same,Substrate specificity (phosphorylation by the enzyme),[1],greatest activity
same,kcat,[2],76 S^−1
same,Km,[2]; bulk solution concentration,19 ± 2 µM
same,Km (mol %),[2],0.48 ± 0.05 mol %
same,Substrate specificity (phosphorylation by the enzyme),[2],greatest activity
L-α-phosphatidylinositol,Substrate specificity (phosphorylation by the enzyme),[1],not phosphorylated; also recorded: No phosphorylation
same,Substrate specificity (phosphorylation by the enzyme),[2],not phosphorylated; also recorded: No phosphorylation
L-α-phosphatidylcholine,Effect of phospholipid on sphingosine kinase activity,[1],did not result in any detectable differences
same,Effect of phospholipid on sphingosine kinase activity,[2],did not result in any detectable differences
[Zn+2] [ZN^2−],Metal ion requirement (sphingosine kinase activity),[1],did not support sphingosine kinase activity
same,Metal ion requirement (sphingosine kinase activity),[2],did not support sphingosine kinase activity
L-α-phosphatidyldethanolamine,Effect of phospholipid on sphingosine kinase activity,[1],did not result in any detectable differences
same,Effect of phospholipid on sphingosine kinase activity,[2],did not result in any detectable differences
[Ca+2] [Ca^2+],Metal ion requirement (sphingosine kinase activity),[1],only very low activity
same,Metal ion requirement (sphingosine kinase activity),[2],only very low activity
CCCCCCCCCCCCC/C=C/[C@@H](O)[C@H](CO)NC(C)=O [N-acetylsphingosine],Inhibition of sphingosine kinase (kind of inhibition),[1],No inhibition
same,Substrate specificity (phosphorylation by the enzyme),[1],not phosphorylated; also recorded: No phosphorylation
same,Inhibition of sphingosine kinase (kind of inhibition),[2],No inhibition
same,Substrate specificity (phosphorylation by the enzyme),[2],not phosphorylated; also recorded: No phosphorylation
Nc1ncnc2c1ncn2[C@@H]1O[C@H](COP(=O)(O)OP(=O)(O)OP(=O)(O)O)[C@@H](O)[C@H]1O [ATP],Km,[1]; bulk solution concentration,77 ± 11 µM
same,Km,[2]; bulk solution concentration,86 ± 12 µM
O=C(O)CN(CCN(CC(=O)O)CC(=O)O)CC(=O)O [EDTA],Metal ion requirement (sphingosine kinase activity),[1],elimated activity
same,Metal ion requirement (sphingosine kinase activity),[2],elimated activity
[Cu+2] [Cu^2−],Metal ion requirement (sphingosine kinase activity),[1],did not support sphingosine kinase activity
same,Metal ion requirement (sphingosine kinase activity),[2],did not support sphingosine kinase activity
[Mn+2] [Mn^2−],Metal ion requirement (sphingosine kinase activity),[1],somewhat lower activity
same,Metal ion requirement (sphingosine kinase activity),[2],somewhat lower activity
[Fe+2] [Fe^2+],Metal ion requirement (sphingosine kinase activity),[1],did not support sphingosine kinase activity
same,Metal ion requirement (sphingosine kinase activity),[2],did not support sphingosine kinase activity
CCCC[C@@H](C)[C@@H](OC(=O)C[C@@H](CC(=O)O)C(=O)O)[C@H](C[C@@H](C)C[C@H](O)CCCC[C@@H](O)C[C@H](O)[C@H](C)N)OC(=O)C[C@@H](CC(=O)O)C(=O)O [Fumosin B1],Inhibition of sphingosine kinase (kind of inhibition),[1],No inhibition
same,Inhibition of sphingosine kinase (kind of inhibition),[2],No inhibition
"CCCCCCCC/C=C\CCCCCCCC(=O)OC[C@H](CO)OC(=O)CCCCCCC/C=C\CCCCCCCC [1,2-dioleoyl-sn-glycerol]",Substrate specificity (phosphorylation by the enzyme),[1],not phosphorylated; also recorded: No phosphorylation
same,Substrate specificity (phosphorylation by the enzyme),[2],not phosphorylated; also recorded: No phosphorylation
"CCCCCCCCCCCCCC[C@@H](O)[C@@H](O)[C@@H](N)CO [phytosphingosine, Phytosphingosine]",Substrate specificity (phosphorylation by the enzyme),[1],Low activity
same,Substrate specificity (phosphorylation by the enzyme),[2],Low activity
CCCCCCCCCCCCCCC[C@H](O)[C@@H](N)CO (racemic) [DL-threo-dihydrosphingosine],Inhibition of sphingosine kinase (kind of inhibition),[1],competitive inhibition
same,Substrate specificity (phosphorylation by the enzyme),[1],not phosphorylated; also recorded: No phosphorylation
same,Inhibition of sphingosine kinase (kind of inhibition),[2],competitive inhibition
same,Substrate specificity (phosphorylation by the enzyme),[2],not phosphorylated; also recorded: No phosphorylation
"CCCCCCCC(=O)OC[C@H](CO)OC(=O)CCCCCCC [1,2-dioctanoyl-sn-glycerol]",Substrate specificity (phosphorylation by the enzyme),[1],not phosphorylated; also recorded: No phosphorylation
same,Substrate specificity (phosphorylation by the enzyme),[2],not phosphorylated; also recorded: No phosphorylation
[Mg+2] [Mg^2+],Metal ion requirement (sphingosine kinase activity),[1],highest activity
same,Metal ion requirement (sphingosine kinase activity),[2],highest activity
"CCCCCCCCCCCCC/C=C/[C@@H](O)[C@H](CO)[N+](C)(C)C [N,N,N-trimethylsphingosine]",Inhibition of sphingosine kinase (kind of inhibition),[1],competitive inhibition
same,Ki,[1]; bulk solution concentration,4.6 ± 1 µM
same,Ki (mol %),[1]; [3],0.12 ± 0.03 mol %
same,Substrate specificity (phosphorylation by the enzyme),[1],not phosphorylated
same,Substrate specificity (phosphorylation by the enzyme),[1]; [4],No phosphorylation
same,Inhibition of sphingosine kinase (kind of inhibition),[2],competitive inhibition
same,Ki,[2]; bulk solution concentration,3.8 ± 1 µM
same,Ki (mol %),[2]; [3],0.10 ± 0.02 mol %
same,Substrate specificity (phosphorylation by the enzyme),[2],not phosphorylated
same,Substrate specificity (phosphorylation by the enzyme),[2]; [4],No phosphorylation
"CCCCCCCCCCCCC/C=C/[C@@H](O)[C@@H](N)CO [Sphingosine, D-erythro-Sphingosine]",kcat,[1],50 S^−1
same,Km (mol %),[1],0.35 ± 0.05 mol %
same,Substrate specificity (phosphorylation by the enzyme),[1],greatest activity
same,kcat,[2],85 S^−1
same,Km (mol %),[2],0.30 ± 0.07 mol %
same,Substrate specificity (phosphorylation by the enzyme),[2],greatest activity
Nc1ncnc2c1ncn2[C@@H]1O[C@H](COP(=O)(O)OP(=O)(O)O)[C@@H](O)[C@H]1O [ADP],Inhibition of sphingosine kinase (kind of inhibition),[1],weak competitive inhibition
same,Ki,[1]; [5],1100 ± 300 µM
same,Inhibition of sphingosine kinase (kind of inhibition),[2],weak competitive inhibition
same,Ki,[2]; [5],900 ± 200 µM
